The values that follow come from article PMC5291759 (Bioorganic & medicinal chemistry, 2016).

Data set [1] deals with Lmna^H222P/H222P mice. The note with it: cited from earlier work.
Data set [2] relates to Lmna^H222P/H222P mice. The class given is in vivo. The note with it: 6 weeks.
Data set [3] concerns Lmna^H222P/H222P mice. Briefly: Serum creatine phosphokinase activity. The class given is in vivo.
Data set [4] deals with Lmna^H222P/H222P mice. Briefly: Quantitative real-time RT-PCR of Nppa and Myl7 mRNA in hearts. The class given is in vivo. (In general: Quantitative PCR measures a nucleic acid by following its amplification.)
For data set [5], the system named is Lmna^H222P/H222P mice. Briefly: Forelimb grip fatigue index. In kind it is in vivo. The note with it: 6 mg/kg/day.
The next data set deals with HT-29 cells. Briefly: Anti-proliferative activity on HT-29 cells. In kind it is cell-based. The note with it: HT-29 anti-proliferative IC50.
Data set [6] concerns Lmna^H222P/H222P mice. Briefly: Cardiac fibrosis score. The class given is in vivo.
Data set [7] relates to ERK1/2 phosphorylation in HEK-293 cells. Briefly: Phosphorylated ERK1/2 immunoblot in cultured HEK-293 cells. In kind it is cell-based. The note with it: 1 µM to 0.001 µM, 24 h. On the technique in general: Immunoblotting shows a protein as a band on a membrane.
In data set [8] the test system is Lmna^H222P/H222P mice. Briefly: Histology of quadriceps muscle. The settings on record: placebo 3 of 6. In kind it is in vivo.
In another data set the test system is ERK1/2 phosphorylation. Briefly: Phosphorylated ERK1/2 relative to total ERK1/2 in tissues of treated mice. The class given is in vivo, Lmna^H222P/H222P mice. The note with it: six weeks.
Data set [9] has as its system Lmna^H222P/H222P mice. The class given is in vivo. The settings on record: for Amylase (serum): 6 weeks, mean ± standard error, n = 10.

Molecules are shown by their SMILES. “Also recorded” adds a separate entry of the source. Like-named read-outs stand apart in the source and are kept apart here.

Turning to `COc1cccc(-c2cc(=O)c3ccccc3o2)c1N` [PD98059], the “effect on left ventricular and skeletal muscle function and survival” value with Lmna^H222P/H222P mice [1] is “beneficial effect on left ventricular and skeletal muscle function and prolongs survivial”.
For `O=S1(=O)Nc2c(cc(F)c(F)c2Nc2ccc(I)cc2F)OCC(O)C(O)CC12CC2` (stereo not drawn) [compound 8], the “Kidney histology, individual sample” value was “Normal” in the data set on Lmna^H222P/H222P mice [2] (3 mg/kg/day); “Some lymphocytic inflammation around the renal pelvis (around the ureter) and occasional medium-sized arteries; more inflammation than 7623 and 7622; also recorded: Mostly normal but some mild lymphocytic inflammation around small arteries with occasional hemosiderin-laden macrophages” in the data set on Lmna^H222P/H222P mice [2] (6 mg/kg/day). The “Liver histology, individual sample” value in the data set with Lmna^H222P/H222P mice [2] (3 mg/kg/day) is reported as “Normal; also recorded: Slightly greater vacuolation in some zones; similar to 7606 but milder; could be preparation artifact”; in the data set with Lmna^H222P/H222P mice [2] (6 mg/kg/day), “Occasional hemosiderin laden macrophages. Some portal triads have mild lymphocytic inflammation; significance uncertain; also recorded: Normal; also recorded: Some intracellular vacuolation in some zones; similar to 7612; could be preparation artifact”. Also, the “Spleen histology, individual sample” value in the data set with Lmna^H222P/H222P mice [2] (3 mg/kg/day) is recorded as “Mildly increased number of hemosiderin-laden macrophages suggestive of old hemorrhage Somewhere; also recorded: Normal (hemosiderin-laden macrophages present but at approximately normal levels)”; in the data set with Lmna^H222P/H222P mice [2] (6 mg/kg/day), “Area of necrosis consistent with splenic infarct; moderately increased number of hemosiderin-laden macrophages suggestive of hemorrhage old somewhere; also recorded: Normal”. The “liver, kidney or spleen histopathology, overall” value in the data set on Lmna^H222P/H222P mice [2] (3 or 6 mg/kg/day) is “no consistent or specific abnormalities in liver, kidney or spleen histopathology”. Further, the “serum creatine phosphokinase activity compared to placebo” value in the data set with Lmna^H222P/H222P mice [3] (3 mg/kg/day) is on record as “but not 3 mg/kg/day of 8 significantly reduced”; in the data set on Lmna^H222P/H222P mice [3] (6 mg/kg/day), “significantly reduced”. In addition, the “cardiac Nppa mRNA compared to placebo” value in the data set on Lmna^H222P/H222P mice [4] (3 mg/kg/day) and in the data set with Lmna^H222P/H222P mice [4] (6 mg/kg/day) was “significantly reduced” throughout. For the same compound, the “cardiac Myl7 mRNA compared to placebo” value in the data set with Lmna^H222P/H222P mice [4] (6 mg/kg/day) was “significantly decreased”. The “forelimb grip fatigue index compared to placebo” value with Lmna^H222P/H222P mice [5] is on record as “significantly reduced”. For the same compound, the “potency of fast moving isomer compared to the slow moving one” value in the data set with HT-29 cells was “approximately 25 fold”. Moreover, the “cardiac fibrosis score (grade 0-4) compared to placebo” value in the data set on Lmna^H222P/H222P mice [6] (3 mg/kg/day) and in the data set on Lmna^H222P/H222P mice [6] (6 mg/kg/day) was “statistically significant decreases in fibrosis” in each case. The ERK1/2 phosphorylation entry in [7] is “essentially abolished ERK1/2 phosphorylation”. Besides, the “quadriceps samples with internally nucleated fibers” value in the data set on Lmna^H222P/H222P mice [8] (3 mg/kg/day) is given as 1 of 5; in the data set on Lmna^H222P/H222P mice [8] (6 mg/kg/day), 0 of 5. The “phosphorylated ERK1/2 relative to total ERK1/2 in heart” value with ERK1/2 phosphorylation (3 mg/kg/day oral gavage) and in the data set on ERK1/2 phosphorylation (6 mg/kg/day oral gavage) was “significant decreases” each time. Further, the “phosphorylated ERK1/2 relative to total ERK1/2 in liver” value in the data set on ERK1/2 phosphorylation (3 mg/kg/day oral gavage) and in the data set on ERK1/2 phosphorylation (6 mg/kg/day oral gavage) was “significant decreases” in each case. The “phosphorylated ERK1/2 relative to total ERK1/2 in quadriceps muscle” value is recorded as “only the higher dose produced a significant decrease” in the data set with ERK1/2 phosphorylation (3 mg/kg/day oral gavage) and “significant decrease” in the data set on ERK1/2 phosphorylation (6 mg/kg/day oral gavage). The “Amylase (serum)” value with Lmna^H222P/H222P mice [9] (3 mg/kg/day) is reported as 1,372 ± 282.9 U/L; in the data set on Lmna^H222P/H222P mice [9] (6 mg/kg/day), 1,086 ± 40.18 U/L. Further, the “liver, kidney or pancreatic toxicity by serum chemistry” value with Lmna^H222P/H222P mice [9] (6 weeks of treatment at a dose up to 6 mg/kg/day) is reported as “did not produce significant liver, kidney or pancreatic toxicity”.
For the compound `Cn1cnc2c(F)c(Nc3ccc(Br)cc3Cl)c(C(=O)NOCCO)cc21` [selumetinib], the “effect on left ventricular and skeletal muscle function and survival” value with Lmna^H222P/H222P mice [1] was “beneficial effect on left ventricular and skeletal muscle function and prolongs survivial”.
